In brackets after ≈: the same amount, converted by molar mass.
Key:
Assay in all cases: ≥ marks a high value that may be exact or a test limit, other limits are often not marked, values filed in µg/mL are converted to µM
[1] = system: Bacillus subtilis KCTC 3068
[2] = system: Escherichia coli KCTC 1682
[3] = system: Pseudomonas aeruginosa KCTC 1637
[4] = system: Salmonella typhimurium KCTC 1926
[5] = system: Staphylococcus aureus KCTC 1621
[6] = system: Staphylococcus epidermidis KCTC 1917
[7] = system: Staphylococcus aureus ATCC BAA-1556
[8] = system: Escherichia coli DH5alpha

| MIC [1] [µM] | MIC [2] [µM] | MIC [3] [µM] | MIC [4] [µM] | MIC [5] [µM] | MIC [6] [µM] | MIC [7] [µM] | Structure (SMILES) | further results |
| --- | --- | --- | --- | --- | --- | --- | --- | --- |
| 2 (≈ 4.88 µg/mL) | 4 (≈ 9.76 µg/mL) | 4 (≈ 9.76 µg/mL) | 2 (≈ 4.88 µg/mL) | 2 (≈ 4.88 µg/mL) | 4 (≈ 9.76 µg/mL) |  | CC[C@H](C)[C@H](N)C(=O)NCC(=O)N[C@@H](CCCCN)C(=O)N[C@@H](CCCCN)C(=O)N[C@@H](Cc1ccccc1)C(=O)N[C@@H](CCCCN)C(=O)N[C@@H](CCCN=C(N)N)C(=O)N[C@H](C(=O)N[C@H](C(=O)N[C@@H](CCCCN)C(=O)N[C@@H](CCCN=C(N)N)C(=O)N[C@H](C(=O)N[C@@H](CCCCN)C(=O)N[C@@H](CCCCN)C(=O)N[C@@H](Cc1c[nH]c2ccccc12)C(=O)N[C@@H](CC(C)C)C(=O)N[C@@H](CCCN=C(N)N)C(=O)N[C@@H](CCCCN)C(=O)N[C@@H](CC(C)C)C(=O)O)[C@@H](C)CC)C(C)C)[C@@H](C)CC [IGKKFKRIVKRIKKWLRKL] |  |
| 2.5 (≈ 5 µg/mL) | 5 (≈ 10 µg/mL) | 5 (≈ 10 µg/mL) | 2.5 (≈ 5 µg/mL) | 2.5 (≈ 5 µg/mL) | 5 (≈ 10 µg/mL) |  | CC[C@H](C)[C@H](N)C(=O)N[C@@H](CC(C)C)C(=O)N[C@@H](CCCCN)C(=O)N[C@@H](Cc1c[nH]c2ccccc12)C(=O)N[C@@H](CCCCN)C(=O)N[C@@H](Cc1c[nH]c2ccccc12)C(=O)N[C@@H](CCCCN)C(=O)N[C@@H](Cc1c[nH]c2ccccc12)C(=O)N[C@@H](Cc1c[nH]c2ccccc12)C(=O)N[C@@H](CCCCN)C(=O)N[C@@H](Cc1c[nH]c2ccccc12)C(=O)N[C@@H](CCCN=C(N)N)C(=O)N[C@@H](CCCN=C(N)N)C(N)=O [ILKWKWKWWKWRR] |  |
| 5.97 (≈ 9.99 µg/mL) | 5.97 (≈ 9.99 µg/mL) | 5.97 (≈ 9.99 µg/mL) | 2.98 (≈ 5 µg/mL) | 5.97 (≈ 9.99 µg/mL) | 2.98 (≈ 5 µg/mL) |  | CC[C@H](C)[C@H](N)C(=O)N[C@@H](CC(C)C)C(=O)N1CCC[C@H]1C(=O)N[C@@H](Cc1c[nH]c2ccccc12)C(=O)N[C@@H](CCCCN)C(=O)N[C@@H](CCCCN)C(=O)N1CCC[C@H]1C(=O)N[C@@H](CCCCN)C(=O)N[C@@H](CCCCN)C(=O)N1CCC[C@H]1C(=O)N[C@@H](CCCCN)C(=O)N[C@@H](CCCN=C(N)N)C(=O)N[C@@H](CCCN=C(N)N)C(N)=O [ILPWKKPKKPKRR] |  |
| 5.41 (≈ 9.99 µg/mL) | 2.7 (≈ 5 µg/mL) | 10.8 (≈ 20 µg/mL) | 2.7 (≈ 5 µg/mL) | 2.7 (≈ 5 µg/mL) | 2.7 (≈ 5 µg/mL) |  | CC[C@H](C)[C@H](N)C(=O)N[C@@H](CC(C)C)C(=O)N1CCC[C@H]1C(=O)N[C@@H](Cc1c[nH]c2ccccc12)C(=O)N[C@@H](CCCCN)C(=O)N[C@@H](Cc1c[nH]c2ccccc12)C(=O)N1CCC[C@H]1C(=O)N[C@@H](CCCCN)C(=O)N[C@@H](Cc1c[nH]c2ccccc12)C(=O)N1CCC[C@H]1C(=O)N[C@@H](Cc1c[nH]c2ccccc12)C(=O)N[C@@H](CCCN=C(N)N)C(=O)N[C@@H](CCCN=C(N)N)C(N)=O [ILPWKWPKWPWRR] |  |
|  |  |  |  |  |  | 25 (≈ 32.1 µg/mL) | CC[C@H](C)[C@H](NC(=O)[C@H](Cc1c[nH]c2ccccc12)NC(=O)[C@H](CCCN=C(N)N)NC(=O)[C@H](CCCN=C(N)N)NC(=O)[C@H](C)NC(=O)[C@@H](N)CCCCN)C(=O)N[C@@H](CCCN=C(N)N)C(=O)N[C@@H](Cc1c[nH]c2ccccc12)C(=O)N[C@@H](CC(C)C)C(N)=O [KARRWIRWL] |  |
| 2 (≈ 4.15 µg/mL) | 4 (≈ 8.31 µg/mL) | 8 (≈ 16.6 µg/mL) | 4 (≈ 8.31 µg/mL) | 4 (≈ 8.31 µg/mL) | 4 (≈ 8.31 µg/mL) |  | C[C@@H](O)[C@H](NC(=O)[C@H](CCCCN)NC(=O)[C@H](Cc1c[nH]c2ccccc12)NC(=O)[C@H](Cc1c[nH]c2ccccc12)NC(=O)[C@@H](NC(=O)[C@H](CCCCN)NC(=O)[C@@H](N)CCCCN)[C@@H](C)O)C(=O)N[C@@H](Cc1c[nH]c2ccccc12)C(=O)N[C@@H](Cc1c[nH]c2ccccc12)C(=O)N[C@H](C(=O)N[C@@H](CCCCN)C(=O)N[C@@H](Cc1c[nH]c2ccccc12)C(=O)N[C@@H](CO)C(=O)N[C@@H](CCC(N)=O)C(=O)N1CCC[C@H]1C(=O)O)[C@@H](C)O [KKTWWKTWWTKWSQP] |  |
|  |  |  |  |  |  | 3.13 (≈ 3.96 µg/mL) | CC(C)C[C@H](NC(=O)[C@H](CC(C)C)NC(=O)[C@H](CCCCN)NC(=O)[C@H](CC(C)C)NC(=O)[C@H](CC(C)C)NC(=O)[C@H](Cc1c[nH]c2ccccc12)NC(=O)[C@H](CCCCN)NC(=O)[C@H](CC(C)C)NC(=O)[C@H](CC(C)C)NC(=O)[C@@H](N)CCCCN)C(N)=O [KLLKWLLKLL] |  |
|  |  |  |  |  |  | ≥ 100 | CC(C)C[C@H](NC(=O)[C@H](CC(C)C)NC(=O)[C@H](CCCCN)NC(=O)[C@H](CC(C)C)NC(=O)[C@H](CC(C)C)NC(=O)[C@H](CC(C)C)NC(=O)[C@H](CC(C)C)NC(=O)[C@H](CC(C)C)NC(=O)[C@@H](N)CCCCN)C(N)=O [KLLLLLKLL] |  |
| 4 (≈ 6.44 µg/mL) | 2 (≈ 3.22 µg/mL) | 8 (≈ 12.9 µg/mL) | 4 (≈ 6.44 µg/mL) | 2 (≈ 3.22 µg/mL) | 1 (≈ 1.61 µg/mL) |  | CC[C@H](C)[C@H](NC(=O)[C@H](CCCN=C(N)N)NC(=O)[C@H](CCC(N)=O)NC(=O)[C@@H](NC(=O)[C@@H](NC(=O)[C@H](CCCN=C(N)N)NC(=O)[C@@H](N)CCCCN)[C@@H](C)CC)C(C)C)C(=O)N[C@@H](CCCCN)C(=O)N[C@@H](CC(=O)O)C(=O)N[C@@H](Cc1c[nH]c2ccccc12)C(=O)N[C@@H](CC(C)C)C(=O)N[C@@H](CCCN=C(N)N)C(N)=O [KRIVQRIKDWLR] |  |
|  |  |  |  |  |  | 6.25 (≈ 8.47 µg/mL) | CC[C@H](C)[C@H](NC(=O)[C@H](Cc1c[nH]c2ccccc12)NC(=O)[C@H](CCCN=C(N)N)NC(=O)[C@H](CC(C)C)NC(=O)[C@H](Cc1c[nH]c2ccccc12)NC(=O)[C@@H](N)CCCCN)C(=O)N[C@@H](CCCN=C(N)N)C(=O)N[C@@H](Cc1c[nH]c2ccccc12)C(=O)N[C@@H](CC(C)C)C(N)=O [KWLRWIRWL] |  |
|  |  |  |  |  |  | 12.5 (≈ 16.4 µg/mL) | CC[C@H](C)[C@H](NC(=O)[C@H](Cc1c[nH]c2ccccc12)NC(=O)[C@H](C)NC(=O)[C@H](CCCN=C(N)N)NC(=O)[C@H](Cc1c[nH]c2ccccc12)NC(=O)[C@@H](N)CCCCN)C(=O)N[C@@H](CCCN=C(N)N)C(=O)N[C@@H](Cc1c[nH]c2ccccc12)C(=O)N[C@@H](CC(C)C)C(N)=O [KWRAWIRWL] |  |
|  |  |  |  |  |  | 12.5 (≈ 12.8 µg/mL) | CC(C)C[C@H](NC(=O)[C@H](CC(C)C)NC(=O)[C@H](CCCCN)NC(=O)[C@H](CC(C)C)NC(=O)[C@H](CC(C)C)NC(=O)[C@H](Cc1c[nH]c2ccccc12)NC(=O)[C@H](CCCCN)NC(=O)[C@@H](N)CC(C)C)C(N)=O [LKWLLKLL] |  |
|  |  |  |  |  |  | 3.13 (≈ 3.34 µg/mL) | CC(C)C[C@H](NC(=O)[C@H](CC(C)C)NC(=O)[C@H](CC(C)C)NC(=O)[C@H](CCCCN)NC(=O)[C@H](CC(C)C)NC(=O)[C@H](CC(C)C)NC(=O)[C@H](CCCCN)NC(=O)[C@H](CC(C)C)NC(=O)[C@@H](N)CC(C)C)C(N)=O [LLKLLKLLL] |  |
|  |  |  |  |  |  | ≥ 100 | CC(C)C[C@H](NC(=O)[C@H](CC(C)C)NC(=O)[C@H](CCCCN)NC(=O)[C@H](CC(C)C)NC(=O)[C@H](CC(C)C)NC(=O)[C@H](CC(C)C)NC(=O)[C@H](CCCCN)NC(=O)[C@H](CC(C)C)NC(=O)[C@@H](N)CC(C)C)C(=O)O [LLKLLLKLL] |  |
|  |  |  |  |  |  | ≥ 100 | CC(C)C[C@H](NC(=O)[C@H](CCCCN)NC(=O)[C@H](CC(C)C)NC(=O)[C@H](CC(C)C)NC(=O)[C@H](CC(C)C)NC(=O)[C@H](CCCCN)NC(=O)[C@H](CC(C)C)NC(=O)[C@@H](N)CC(C)C)C(N)=O [LLKLLLKL] |  |
|  |  |  |  |  |  | ≥ 100 | CC(C)C[C@H](NC(=O)[C@H](CCCCN)NC(=O)[C@H](CC(C)C)NC(=O)[C@H](CC(C)C)NC(=O)[C@H](CC(C)C)NC(=O)[C@H](CC(C)C)NC(=O)[C@H](CCCCN)NC(=O)[C@H](CC(C)C)NC(=O)[C@@H](N)CC(C)C)C(N)=O [LLKLLLLKL] |  |
|  |  |  |  |  |  | ≥ 100 | CC(C)C[C@H](NC(=O)[C@H](CCCCN)NC(=O)[C@H](CC(C)C)NC(=O)[C@H](CC(C)C)NC(=O)[C@H](CC(C)C)NC(=O)[C@H](CCCCN)NC(=O)[C@H](CC(C)C)NC(=O)[C@H](CC(C)C)NC(=O)[C@@H](N)CC(C)C)C(N)=O [LLLKLLLKL] |  |
| 8 (≈ 25.1 µg/mL) | 4 (≈ 12.6 µg/mL) | 8 (≈ 25.1 µg/mL) | 8 (≈ 25.1 µg/mL) | 8 (≈ 25.1 µg/mL) | 8 (≈ 25.1 µg/mL) |  | CC[C@H](C)[C@H](NC(=O)[C@H](C)NC(=O)[C@H](CCCN=C(N)N)NC(=O)[C@@H]1CCCN1C(=O)[C@H](CC(C)C)NC(=O)[C@H](CC(N)=O)NC(=O)[C@H](Cc1ccc(O)cc1)NC(=O)CNC(=O)[C@H](C)NC(=O)[C@@H](NC(=O)[C@@H](NC(=O)[C@@H](NC(=O)[C@H](CCCN=C(N)N)NC(=O)[C@@H](NC(=O)[C@@H](NC(=O)[C@H](CC(C)C)NC(=O)[C@H](Cc1ccc(O)cc1)NC(=O)[C@H](Cc1c[nH]c2ccccc12)NC(=O)[C@@H](NC(=O)[C@H](CCCN=C(N)N)NC(=O)[C@H](CCCCN)NC(=O)[C@@H](NC(=O)[C@@H](N)CCCN=C(N)N)C(C)C)C(C)C)C(C)C)[C@@H](C)CC)[C@@H](C)O)C(C)C)[C@@H](C)CC)C(=O)N[C@@H](CCCCN)C(=O)N[C@@H](CCCCN)C(=O)N[C@@H](CCCCN)C(=O)O [RVKRVWYLVIRTVIAGYNLPRAIKKK] |  |
|  |  |  |  |  |  | ≥ 100 | CC[C@H](C)[C@H](NC(=O)[C@H](Cc1c[nH]c2ccccc12)NC(=O)[C@@H](N)CCCN=C(N)N)C(=O)N[C@@H](CCCN=C(N)N)C(=O)N[C@@H](Cc1c[nH]c2ccccc12)C(=O)N[C@@H](CC(C)C)C(N)=O [RWIRWL] |  |
|  |  |  |  |  |  |  | C[C@@H](O)[C@H](NC(=O)[C@H](CCCN=C(N)N)NC(=O)[C@H](CCCN=C(N)N)NC(=O)[C@H](CC(N)=O)NC(=O)[C@H](Cc1c[nH]c2ccccc12)NC(=O)[C@H](CCCN=C(N)N)NC(=O)[C@H](Cc1c[nH]c2ccccc12)NC(=O)[C@@H](N)CCCN=C(N)N)C(=O)NCC(=O)N[C@@H](CCCN=C(N)N)C(=O)N[C@@H](Cc1c[nH]c2ccccc12)C(=O)N[C@@H](CCCN=C(N)N)C(=O)N[C@@H](Cc1c[nH]c2ccccc12)C(=O)N[C@@H](Cc1ccc(O)cc1)C(=O)O [RWRWNRRTGRWRWY] | MIC [8]: 12.5 µM (≈ 26.7 µg/mL) |

From DBAASP
